Source: patent US6686360B2, “N-benzylpiperazine compounds” (priority 2001, dated 2004)

Assays:
[1] = tested on: primary cultures of cardiomyocytes; assay: Anti-apoptotic effect in primary cultures of cardiomyocytes (H2O2-induced apoptosis); type: cell-based; conditions: newborn rat cardiomyocytes; H2O2 0.075 mmol/liter for 30 minutes, then 24 hours culture
Protocol: An in vitro study into an anti-apoptotic effect in primary cultures of cardiomyocytes was carried out by inducing apoptosis by adding hydrogen peroxide (H2O2). The free radicals produced induce apoptosis. This is similar to what is observed in ischaemia-reperfusion (R. Von Harsdorf, Circulation 99, 2934-2941). The cardiomyocytes are isolated from newborn rat hearts and are spread out at a density of 35 000 cells/cm^2. The process of apoptosis is induced by the addition of H2O2 (0.075 mmol/liter) for 30 minutes. The cardiomyocytes are then replaced in the culture medium for 24 hours. The apoptotic cells are visualised by various techniques, for example by the fragmentation of the genomic DNA that occurs in the process of apoptosis. […] The characteristic fragments of 180 bp of genomic DNA are detected by electrophoresis on agarose gel. The migration of phosphatidylserine (PS) from the inside of the membrane of the […] to the outside (externalisation) is an early indicator of apoptosis. This can be visualised by fluorescent labelling using annexin-V-FITC (fluorescein isothiocyanate) and quantified by comparison with the total number of cells.

[2] = tested on: transitory focal cerebral ischaemia; assay: Anti-ischaemic activity: transitory focal cerebral ischaemia by intraluminal occlusion; type: in vivo; conditions: adult male Wistar rat; 1 mg/kg intravenously 3 minutes before occlusion; occlusion 1 hour, reperfusion 23 hours
Protocol: The model used is a model of transitory focal cerebral ischaemia produced by intraluminal occlusion which mimics an embolic cerebral vascular accident in humans. The location of the infarction is cortical and subcortical (R. Bordet et al., J Cereb Blood Flow Metab. 20, 2000, 1190-1196 and 1999, 19, 1309-1345).
The model consists of a unilateral occlusion of the […] for 1 hour followed by reperfusion for 23 hours in an adult male Wistar rat. The aim of this experiment is to study the anti-ischaemic effect of the compounds of the invention.
The animals are anaesthetised for surgery with 300 mg/kg of chloral hydrate. For the duration of the surgery, their temperature is monitored and maintained at 37° C. using a temperature-controlled heating blanket.
The principal procedure is to stop the circulation of blood to the right middle cerebral artery (MCA) by intraluminal occlusion of the ostium. After 60 minutes, the occlusion is removed and the animals are replaced in their cage. After 24 hours the animals are sacrificed under anaesthetic. […]
The uncorrected infarcted zones and the total hemispheric zones are calculated separately for each section using an image analysis program. The corrected total volume of infarction is calculated in order to compensate for the effect of cerebral cedema. […]

[3] = tested on: mouse model of neurodegeneration affecting both the cortical neurones and the subjacent white matter; assay: Neuroprotection in the cortex and white matter: excitotoxic lesions by intracerebral ibotenate or S-bromo-willardiine; type: in vivo; conditions: for Cortical lesions: lesion, μm / White matter lesions: lesion, μm: 10 mg/kg i.p. immediately after excitotoxic assault at P5, sacrifice at P10, averages; for size of the lesions in the white matter and in the cortex (neuroprotective effect): newborn Swiss mouse, test compound intraperitoneally after excitotoxic assault
Protocol: The model used is a mouse model of neurodegeneration affecting both the cortical neurones and the subjacent white matter (S. L. Tahraoui et al., Brain Pathol., 2001, 11, 56-71). This model is based on an intracerebral injection of S-bromo-willardiine, a glutamatergic agonist that acts on AMPA-kainate receptors, or of ibotenate, an agonist of NMDA-type receptors, in the newborn mouse.
All the injections are carried out in the morning between 10.00 and 13.00 hours. The animals are anaesthetised in advance and kept under a heating lamp during the handling period. Each experimental group comprises from 5 to 12 Swiss mice of both sexes, from at least 2 different litters. On the 5th day of life (P5), 10 μg of ibotenate or 15 μg of S-bromo-willardiine are injected intracerebrally using a 25G gauge needle mounted on a 50 μl syringe, fixed to a calibrated device that delivers a bolus of 1 μl at each depression. The needle is inserted 2 mm below the cutaneous level, in the fronto-parietal region of the right hemisphere (2 mm in front of the lambdoid suture and 2 mm outside the median line). Two boluses of 1 μl (1 μl into the periventricular white matter and 1 μl into the cortex) are administered. An interval of 30 seconds, during which the needle remains in position, separates each bolus in order to allow diffusion of the product. Immediately after this excitotoxic assault, the test compound (3, 10 or 30 mg/kg) or the carrier is administered intraperitoneally (injected volume=5 μl). The animals are sacrificed by decapitation 5 days later (P10) and their brains are immediately removed and fixed in formol before being enclosed in paraffin. Series of 15 μm coronal sections are prepared for all the brains and stained with cresyl violet, which makes it possible to determine in a precise and reproducible manner the anterio-posterior axis of the histological lesions in both the cortex and the white matter. The sizes of the histological lesions are determined by two independent observers having no knowledge of the experimental groups. The results are expressed in the form of averages.

[4] = tested on: lesions induced by kainic acid in the CA1 and CA3 regions of the hippocampus; assay: Neuroprotection in the CA1 and CA3 regions of the hippocampus (kainic acid lesions); type: in vivo, rat; conditions: single injection 20 mg/kg intraperitoneal 3 minutes before kainic acid 12 mg/kg i.p.; sacrifice 7 days later
Protocol: The histopathological changes observed which are associated with administration of kainic acid differ from cerebral ischaemia caused by lesions that develop first in the CA1 to CA3 regions of the hippocampus (C. Montecot et al., Neuroscience 84, 791-800). The aim is to study the protective effect against lesions induced essentially in the CA3 region of the hippocampus while there is no reduction in the circulation of blood.
Kainic acid is administered intraperitoneally to a conscious rat in a dose of 12 mg/kg. The animal is then observed for a period of about 2 hours during which, after a latent period, epileptiform convulsions occur. At the end of 2 hours, the convulsions are stopped by administration of 10 mg/kg of diazepam. The animals are sacrificed 7 days later, their brains are isolated and 8 transverse sections 15 μm thick, spaced 150 μm apart, are prepared. These are analysed by contrast microscopy by two independent observers having no knowledge of the experimental groups. A rating of 0 to 3 is given according to the severity of the neuronal lesions. The ratings for each hemisphere are added together to obtain a lesion rating.
The product is administered in a dose of 20 mg/kg by the intraperitoneal route 3 minutes before administration of the kainic acid.

COc1ccc(CN2CCN(Cc3ccccc3)CC2)c(OCCCCCCC(=O)O)c1OC.Cl.Cl [Example 2, 7-{6-[(4-Benzyl-1-piperazinyl)methyl]-2,3-dimethoxyphenoxy}-heptanoic acid dihydrochloride]
cell survival [1]: increase | percentage of cells undergoing apoptosis [1]: decrease | size of the infarction of the cortex and striatum [2]: reduced the size of the infarction of the cortex and striatum significantly | Cortical lesions: lesion, μm [3]: 200 μm | White matter lesions: lesion, μm [3]: 146.7 μm | size of the lesions in the white matter and in the cortex (neuroprotective effect) [3]: reduced the size of the lesions in the white matter and in the cortex | protection of neurones of the CA1 and CA3 regions of the hippocampus against kainic acid lesions [4]: protects the neurones of the CA1 and CA3 regions of the hippocampus against lesions induced by kainic acid

COc1ccc(CN2CCNCC2)c(OC)c1OC [TMZ, Trimetazidine, reference compound]
Cortical lesions: lesion, μm [3]: 800 μm | White matter lesions: lesion, μm [3]: 320 μm | size of the lesions in the white matter and in the cortex (neuroprotective effect) [3]: very low neuroprotective effect
